Reference: BindingDB's records for doi:10.1039/c2dt30198a (Shanxi University, 2012)

What was measured:
[1] = target: Tyrosine-protein phosphatase non-receptor type 9 (PTP-MEG2, Homo sapiens) (UniProt P43378); assay: The assays were performed in 20 mM MOPS buffer, pH 7.2, containing 50 mM NaCl and 2 mM GSH. Compounds were dissolved in DMSO and diluted to various concentration gradients and further diluted for activity evaluations. Ten microliter of complex was mixed to 82 L enzyme solution for 30 min, followed by addition of 2 L of pNPP (0.1 M) substrate to initiat
Chain of Tyrosine-protein phosphatase non-receptor type 9 (PTP-MEG2, Homo sapiens) (P43378 whole entry, looked up): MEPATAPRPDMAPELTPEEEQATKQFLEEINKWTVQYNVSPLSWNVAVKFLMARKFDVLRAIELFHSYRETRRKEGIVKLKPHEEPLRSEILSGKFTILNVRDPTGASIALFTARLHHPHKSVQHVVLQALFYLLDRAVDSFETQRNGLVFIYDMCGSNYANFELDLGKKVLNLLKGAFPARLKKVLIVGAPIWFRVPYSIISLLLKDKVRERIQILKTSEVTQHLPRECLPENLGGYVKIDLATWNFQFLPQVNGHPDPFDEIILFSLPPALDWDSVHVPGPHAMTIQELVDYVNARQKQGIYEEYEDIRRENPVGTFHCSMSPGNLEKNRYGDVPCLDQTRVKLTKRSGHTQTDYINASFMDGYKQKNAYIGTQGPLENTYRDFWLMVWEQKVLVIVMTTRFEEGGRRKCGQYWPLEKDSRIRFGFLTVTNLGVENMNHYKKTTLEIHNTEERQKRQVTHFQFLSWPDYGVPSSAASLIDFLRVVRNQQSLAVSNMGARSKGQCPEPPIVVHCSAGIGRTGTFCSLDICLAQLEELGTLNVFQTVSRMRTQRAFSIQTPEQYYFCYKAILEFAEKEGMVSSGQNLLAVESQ

[2] = target: T1, Tyrosine-protein phosphatase non-receptor type 11 (Homo sapiens, UniProt Q06124); assay: PTP inhibition assay; conditions: pH 7.2
T1 sequence (Q06124 whole entry): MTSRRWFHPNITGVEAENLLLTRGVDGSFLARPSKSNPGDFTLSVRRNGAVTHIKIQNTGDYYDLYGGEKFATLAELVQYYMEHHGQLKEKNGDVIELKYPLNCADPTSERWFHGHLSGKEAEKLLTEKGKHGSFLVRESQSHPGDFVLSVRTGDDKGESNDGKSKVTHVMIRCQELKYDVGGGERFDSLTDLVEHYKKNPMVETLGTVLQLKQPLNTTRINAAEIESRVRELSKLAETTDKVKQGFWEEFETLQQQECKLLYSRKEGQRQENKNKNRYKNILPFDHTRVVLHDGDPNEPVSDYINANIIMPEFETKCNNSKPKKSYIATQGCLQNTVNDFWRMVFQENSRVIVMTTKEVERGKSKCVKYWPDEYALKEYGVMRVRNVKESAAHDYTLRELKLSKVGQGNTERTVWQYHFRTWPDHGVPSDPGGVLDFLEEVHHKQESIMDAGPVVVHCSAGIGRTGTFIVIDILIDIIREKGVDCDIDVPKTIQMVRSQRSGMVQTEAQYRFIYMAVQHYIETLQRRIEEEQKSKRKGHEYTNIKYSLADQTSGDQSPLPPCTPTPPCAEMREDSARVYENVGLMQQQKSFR
Protocol: (§1) The assays were performed in 20 mM MOPS buffer, pH 7.2, containing 50 mM NaCl and 2 mM GSH. Compounds were dissolved in DMSO and diluted to various concentration gradients and further diluted for activity evaluations. Ten microliter of complex was mixed to 82 L enzyme solution for 30 min, followed by addition of 2 L of pNPP (0.1 M) substrate to initiate the reaction. After 30 min at RT, 6 L of 2 M NaOH was added to terminate the reaction. The absorbance was measured at 405 nm.

[3] = target: Tyrosine-protein phosphatase non-receptor type 6 (Homo sapiens, UniProt P29350); assay: PTP inhibition assay; conditions: pH 7.2
Chain of Tyrosine-protein phosphatase non-receptor type 6 (P29350 whole entry): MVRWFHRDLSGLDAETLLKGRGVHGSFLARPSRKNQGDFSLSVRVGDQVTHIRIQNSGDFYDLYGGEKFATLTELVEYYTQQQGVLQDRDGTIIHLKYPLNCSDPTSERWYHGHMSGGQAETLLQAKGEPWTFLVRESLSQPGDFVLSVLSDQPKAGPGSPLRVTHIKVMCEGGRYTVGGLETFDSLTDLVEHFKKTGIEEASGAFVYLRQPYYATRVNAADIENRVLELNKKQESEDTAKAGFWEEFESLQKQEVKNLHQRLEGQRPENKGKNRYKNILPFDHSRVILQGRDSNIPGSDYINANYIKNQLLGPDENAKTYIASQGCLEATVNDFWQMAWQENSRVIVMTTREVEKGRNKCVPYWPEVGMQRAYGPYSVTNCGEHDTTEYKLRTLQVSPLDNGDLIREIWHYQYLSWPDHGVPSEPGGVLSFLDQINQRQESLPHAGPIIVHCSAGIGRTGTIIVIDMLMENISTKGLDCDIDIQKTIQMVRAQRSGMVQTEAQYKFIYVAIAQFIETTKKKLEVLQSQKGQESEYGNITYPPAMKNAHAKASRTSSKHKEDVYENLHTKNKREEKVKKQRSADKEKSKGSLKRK
Protocol: as §1

[4] = target: T2, Tyrosine-protein phosphatase non-receptor type 1 (Homo sapiens, UniProt P18031); assay: PTP inhibition assay; conditions: pH 7.2
T2 sequence (P18031 whole entry): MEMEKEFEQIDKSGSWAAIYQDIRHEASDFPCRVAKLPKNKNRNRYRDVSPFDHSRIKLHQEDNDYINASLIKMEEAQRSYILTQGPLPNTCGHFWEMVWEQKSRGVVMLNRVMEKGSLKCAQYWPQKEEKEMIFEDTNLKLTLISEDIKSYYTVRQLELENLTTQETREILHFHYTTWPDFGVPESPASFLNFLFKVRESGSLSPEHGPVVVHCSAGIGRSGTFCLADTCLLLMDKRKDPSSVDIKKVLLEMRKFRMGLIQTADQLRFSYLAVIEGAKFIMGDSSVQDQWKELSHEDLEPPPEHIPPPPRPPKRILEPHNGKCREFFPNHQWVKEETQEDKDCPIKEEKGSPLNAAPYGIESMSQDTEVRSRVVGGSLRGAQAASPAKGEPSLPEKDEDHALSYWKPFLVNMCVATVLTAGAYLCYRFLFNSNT
Protocol: as §1

[5] = target: T3, Tyrosine-protein phosphatase non-receptor type 2 (Homo sapiens, UniProt P17706); assay: PTP inhibition assay; conditions: pH 7.2
T3 sequence (P17706 whole entry): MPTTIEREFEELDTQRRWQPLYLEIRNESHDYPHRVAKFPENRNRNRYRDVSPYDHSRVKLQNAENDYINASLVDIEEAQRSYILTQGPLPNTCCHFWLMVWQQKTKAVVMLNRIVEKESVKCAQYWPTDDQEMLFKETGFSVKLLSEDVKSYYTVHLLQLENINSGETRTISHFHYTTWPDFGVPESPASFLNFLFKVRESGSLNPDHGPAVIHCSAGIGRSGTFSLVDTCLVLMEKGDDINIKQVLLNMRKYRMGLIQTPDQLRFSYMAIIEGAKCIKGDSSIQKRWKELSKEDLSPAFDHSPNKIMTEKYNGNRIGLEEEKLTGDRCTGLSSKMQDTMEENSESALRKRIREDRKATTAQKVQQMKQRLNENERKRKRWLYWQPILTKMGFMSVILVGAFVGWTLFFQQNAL
Protocol: as §1

Substance | IC50 [1] | IC50 [2] | IC50 [3] | IC50 [4] | IC50 [5]
Bis(4-bromo-2-((phenylimino)methyl)phenolate)-oxovanadium(IV) (4) | 2.9 µM | 35 µM | 6.5 µM | 0.69 µM | 1.9 µM
Bis(4-chloro-2-((phenylimino)methyl)phenolate)-oxovanadium(IV) (3) | 3.6 µM | 2.3 µM | 1 µM | 0.8 µM | 8.3 µM
Bis(4-nitro-2-((phenylimino)methyl)phenolate)-oxovanadium(IV) (5) | 3.2 µM | 2.6 µM | 2.5 µM | 0.93 µM | 1.4 µM
